According to patent US5952183A, “Synthesis of estrogen-purine base and estrogen-mercapturate adducts and development of fluorescent probes and monoclonal antibodies to assay those adducts” (priority 1998, dated 1999):
Where two headings read alike, the source gives them in different places.

Tests used:
[1] = Stability of estrogen quinones at various pH (remaining quinone by HPLC); format: physicochemical
Method: Because acidic conditions were used to generate these estrogen-nucleoside adducts, an investigation was conducted of the effects of pH on the stability of both the 3,4- and 2,3-quinones.
^a pH was adjusted with the following buffers: pH 9, trisHCl; pH 7,
distilled H2 O; […]; pH 3, citric acid.
^b t1/2 is defined as the time when 1/2 of the original quinone
concentration was observed by HPLC
^c Quinones (0.02 mmol) were synthesized in 2 mL of CH3 CN and
placed in 10 mL of aqueous buffer

[2] = 1H-NMR monitoring of E1-2,3-Q to quinone methide tautomerization in CH3CN-d3; format: physicochemical
DNA = assay: Formation of DNA adducts by quinones or horseradish peroxidase-activated catechol estrogens in vitro (32P-postlabeling for stable adducts); format: biochemical
Text: First, the o-quinones of estrogens are capable of binding directly to the nucleophilic groups of DNA bases. Second, the 3,4-quinones of estrogens produce depurinating adducts that are lost from DNA, generating apurinic sites in the DNA; and third, the 2,3-quinones form stable adducts that remain bound to DNA if not repaired. In fact, reaction of 2,3- and 3,4-quinones with DNA or CE activated by horseradish peroxidase in the presence of DNA affords differential formation of stable adducts, as evidenced by 32P-postlabeling analysis. The 2,3-quinones form 10-50 times higher levels of stable adducts than the 3,4-quinones.

DNA, rat mammary gland = assay: Formation of depurinating DNA adducts in the rat mammary gland; format: in vivo
hamster kidney = settings: Syrian golden hamsters; cited from earlier work
[3] = published isomerization study of model o-quinone; cited from earlier work

## C[C@]12CC[C@@H]3C4=CC(=O)C(=O)C=C4CC[C@H]3[C@@H]1CCC2=O [E1-2,3-Q]
[1]
  effect of lowering pH on stability: did not
  decomposition under mildly basic conditions: decomposed rapidly
[1]; pH 3, citric acid, read-out: t1/2 (time when 1/2 of the original quinone concentration was observed by HPLC)
  half-life: 1.17 h
[1]; pH 5, trizma, read-out: t1/2 (time when 1/2 of the original quinone concentration was observed by HPLC)
  half-life: 1.83 h
[1]; pH 7, distilled H2O, read-out: t1/2 (time when 1/2 of the original quinone concentration was observed by HPLC)
  half-life: 1.83 h
[1]; pH 9, trisHCl, read-out: t1/2 (time when 1/2 of the original quinone concentration was observed by HPLC)
  half-life: < 0.0833 h
[2]; CH3CN-d3, two days
  change of 1H-NMR spectrum over time: unchanged for two days
[2]; CH3CN-d3 with CF3CO2H-d, two weeks
  change of o-quinone 1H-NMR spectrum over time with acid: no change in the o-quinone spectrum was observed

## C[C@]12CC[C@@H]3c4ccc(O)c(O)c4CC[C@H]3[C@@H]1CC[C@@H]2O [4-OHE2, 4-hydroxyestradiol]
DNA; in vitro, 3,4-quinones or enzymically-activated 4-OHE1/4-OHE2
  formation of depurinating E1(E2)-1-(α,β)-N7Gua adducts: almost exclusively
DNA, rat mammary gland; rat mammary gland
  formation of depurinating E1(E2)-1-(α,β)-N7Gua adducts: almost exclusively

## C[C@]12CC[C@@H]3C4=C(CC[C@H]3[C@@H]1CCC2=O)C(=O)C(=O)C=C4 [E1-3,4-Q]
[1]
  effect of lowering pH on stability: marked increase in stability
  decomposition under mildly basic conditions: decomposed rapidly
[1]; citric acid, pH 3
  half-life: 6.5 h
[1]; distilled h2o, pH 7
  half-life: 1.83 h
[1]; trishcl, pH 9
  half-life: < 0.0833 h
[1]; trizma, pH 5
  half-life: 3.17 h

## C[C@]12CC[C@@H]3c4ccc(O)c(O)c4CC[C@H]3[C@@H]1CCC2=O [4-OHE1, 4-hydroxyestrone]
DNA
  formation of depurinating E1(E2)-1-(α,β)-N7Gua adducts: almost exclusively
DNA, rat mammary gland; rat, in vivo
  formation of depurinating E1(E2)-1-(α,β)-N7Gua adducts: almost exclusively

## C[C@]12CC[C@@H]3c4ccc(O)cc4CC[C@H]3[C@@H]1CC[C@@H]2O [E2, 17β-estradiol]
Hamster kidney
  induction of renal tumors / carcinogenicity: Malignant renal tumors are induced

## C[C@]12CC[C@@H]3c4ccc(O)cc4CC[C@H]3[C@@H]1CCC2=O [E1, estrone]
Hamster kidney
  induction of renal tumors / carcinogenicity: Malignant renal tumors are induced

## O=C1C=C2CCCCC2=CC1=O
[3]
  o-quinone more stable when tautomerized to the QM by: 3.8 kcal/mol
